Values quoted from earlier work in US7279279B2, “Compositions and methods for determining anti-viral drug susceptibility and resistance and anti-viral drug screening” (Monogram Biosciences, Inc., priority 1996, dated 2007).

Tested on: HIV
Conditions: background statement on drug treatment of HIV; no test conditions given

Cc1cn([C@H]2C[C@H](N=[N+]=[N-])[C@@H](CO)O2)c(=O)[nH]c1=O [AZT, zidovudine]
reduce virus replication: about 90%
